Measurements published in US12383527B2, “Methods for treating triple negative breast cancer using salvianolic acid B” (HOWARD UNIVERSITY, priority 2018, dated 2025).
pIC50: −log10 of the molar value.

Assays:
Assay type in all cases: cell-based, human
GM3 synthase = assay: Western blot of GM3 synthase expression in MDA and MCF-7 cells
Procedure: The immunohistochemical results were consistent with those from Western blotting (FIG. 7, panel A). Western blot analysis was used to determine the expression of apoptosis-related proteins Bcl-XL, survivin, caspase-3 and caspase-8 (FIG. 7, panel A). β-actin was used as an internal control for Western blotting. The MCD-7 and MDA cells were treated with Sal-B (50 μM and 100 μM) and doxorubicin (0.1 μM and 1 μM), respectively, for 24 hours. Proteins were extracted from the cells with RIPA lysis buffer (Santa Cruz Biotechnology, Santa Cruz, CA) and the protein concentrations were quantified with Bio-Rad protein quantification kit. Whole-cell proteins were separated on 8% SDS-polyacrylamide gel, transferred to the polyvinylidene difluoride membrane (Bio-Rad), and then probed with the indicated primary antibodies overnight at 4° C. Washed blots were then incubated with horseradish peroxidase-conjugated anti-rabbit, anti-mouse, or anti-goat antibody (Santa Cruz Biotechnology), respectively, for one hour at room temperature. Blots were developed and visualized with ECL detection system (Bio-Rad).
To understand the mechanism underlying increased ceramide accumulation, the expression levels of GCS and GM3 synthase were measured by Western blot analysis in MDA and MCF-7 cells treated by various concentrations of Sal-B (FIG. 8). […]

MCF-7 cells = assay: Luciferase assay (bioluminescent cell viability); details: Homo sapiens
Procedure: (§1) Cell lines and culture. MCF-7 and MDA human breast cancer cell lines stably transfected with firefly luciferase gene were purchased from Caliper Life Sciences (Hanover, MD). MCF-7 cells were cultured in DMEM medium (Invitrogen, Carlsbad, CA) and MDA cells were grown in DMEM/F-12 (1:1) medium (Invitrogen). Both media were supplemented with 10% fetal bovine serum (Invitrogen) and antibiotic-antimycotic mixture (100 IU/ml penicillin and 100 μg/ml streptomycin; Cellgro). The cells were maintained at 37° C. in 5% CO2. All experiments were performed when the cells were in the logarithmic phase of growth. Luciferase assay. The MDA cell line and the hormone receptor-positive MCF-7 cell line were utilized to test the effectiveness of Sal-B and doxorubicin on cancer cell viability. Both cell lines had been stably transfected and expressed the firefly luciferase gene. The bioluminescent signal intensity reflects the cell metabolic activity, being highly correlated with the cell viability. Cell viability was evaluated using the sensitive bioluminescent optical imaging. The cells (10,000 per well) were seeded in flat-bottomed 96-well plates in the above-identified medium with 10% fetal bovine serum and allowed to grow overnight. The old medium was then replaced with fresh medium containing different concentrations of Sal-B (50, 100, 150, and 200 μM) or doxorubicin (0.1, 0.2, 0.5, and 1 μM). The cells were further cultured for 24 hours and D-luciferin was added to each well and mixed gently (final concentration of 150 μ/ml). The signal was measured with the Xenogen IVIS 200 imaging system (Caliper Life Sciences, Hopkinton, MA, USA). The system was equipped with a highly sensitive, cooled charge-coupled device (CCD) camera and a light-tight specimen box. Imaging and quantification of signals was controlled by the acquisition and analysis software Living Image 3.0. The bioluminescent signal from the cells in each well was expressed as total flux (photons per second (p/s)). At least five replicates were performed in each experiment, and each experiment was repeated at least three times. The representative data are presented.

MDA-MB-231 cells = assay: Luciferase assay (bioluminescent cell viability)
Procedure: as §1

O=C(/C=C/c1ccc(O)c2c1[C@H](C(=O)O[C@H](Cc1ccc(O)c(O)c1)C(=O)O)[C@@H](c1ccc(O)c(O)c1)O2)O[C@H](Cc1ccc(O)c(O)c1)C(=O)O [Sal-B, Salvianolic acid B]
expression of GM3 synthase (normalized to β-actin) (GM3 synthase; MCF-7 cells, Sal-B 100 μM): significantly diminished | expression of GM3 synthase (normalized to β-actin) (GM3 synthase; MDA cells, Sal-B at both 50 μM and 100 μM): significantly diminished | viability at 100 µM (MCF-7 cells; MCF7, 24 h, read-out: cell viability compared with untreated cells): 65% | pIC50 (MCF-7 cells; MCF7, MCF-7 cells, 24 hours, read-out: half maximal inhibitory concentration (IC50), cell viability): 3.92 | viability at 100 µM (MDA-MB-231 cells; Homo sapiens, MDA-MB-231, 24 h, read-out: cell viability compared with untreated cells): 69% | pIC50 (MDA-MB-231 cells; Homo sapiens, MDA-MB-231, MDA cells, 24 hours, read-out: half maximal inhibitory concentration (IC50), cell viability): 3.90 | difference in inhibitory effect on cell viability between MDA and MCF-7 cells (MDA-MB-231 cells; Sal-B 50-200 μM, 24 hours): No significant difference
